Common to all, as to format: in vivo, Arabidopsis thaliana
One series relates to PHT1;4 expression. The experiment in a line: Chemical genetics screen, GUS staining of pht1;4-1 reporter line. The settings on record: 25 μM, 5 days on −Pi. The source says:
A “chemical genetics” approach has been carried out to isolate compounds that inhibit the phosphate (Pi) response in Arabidopsis thaliana. Compounds were screened for their ability to inhibit the expression of a phosphate starvation marker, namely the high affinity Pi transporter PHT1,4 gene. For the screening, the A. thaliana pht1;4-1 line (ecotype Wassilewskija) was chosen (Misson et al., 2004). It contains a T-DNA construct inserted into Pht1;4 gene creating a transcriptional fusion with a GUS reporter gene. For phenotypic analyses, A. thaliana Columbia and various lines derived from this ecotype were used. They are either transgenic lines expressing reporter gene as cycB1::GUS (Colón Carmona et al., 1999), MGD3::LUC, PHT1;4::LUC, At1g73010::LUC or various mutants affecting root response to low Pi such as: pdr2 (Ticconi et al., 2004), lpr1, lpr2 (Svistoonoff et al., 2007), lpi1, lpi2 and lpi3 (Sanchez-Calderon et al., 2006).
For the screening, the LATCA collection of 3600 biologically active compounds (Zhao et al., 2007) was used at a final concentration of 25 μM in 1% DMSO. Four to five Arabidopsis seeds of pht1;4-1 (Misson et al., 2004) reporter line were sown in 96-well plates containing 100 μL liquid MS/10 medium with 500 μM of Pi at pH 5.7. After 2 days at 4° C., plants were grown for five days in a culture chamber under a 16 h light/8 h dark regime (24/21° C., 150 μE m^−2s^−1). Medium was then replaced by MS/10 with only 5 μM Pi and the tested compounds were added to the 96-well plates. […] Five days later, plantlets were analysed by GUS staining to assay the activity of the reporter gene inserted in pht1;4 gene. […] Then, plates were analysed using a MZ16 stereomicroscope (Leica microsystems, Germany).
The GUS activity was detected as previously described by Jefferson et al. (1987), using a GUS staining solution containing 50 mM sodium phosphate buffer pH 7.0; 0.01% Triton X-100, 1 mM K3Fe(CN)6, 1 mM K4Fe(CN)6, 1 mg/ml 5-bromo-4-chloro-3-indolyl B-D-glucuronide (X-Gluc). […]

In another series the test system is PHT1 genes (PHT1;4). The experiment in a line: qPCR of PHT1 transcript level on root mRNA. On the procedure: (§1) Plant RNA was extracted with the RNeasy kit (QIAGEN, France). For transcriptome data, RNA were analysed by the CATMA technology (Complete Arabidopsis Transcriptome Microarray). For qPCR, poly(dT) cDNA were prepared from 500 ng total RNA with Superscript III reverse transcriptase (Invitrogen, France) and analysed on a LightCycler 480 apparatus (Roche Diagnostics, France) with the SYBR Green I Master kit (Roche Diagnostics, France) according to the manufacturer's instructions. Targets were quantified with specific primer pairs designed with Primer3 website (http://frodo.wi.mit.edu/primer3/) (see Table II below). Biological triplicates were performed for all experiments. Expression levels were normalized using At2g16600, At3g04120, At1g35160 and At1g32050 genes.
(In general: In qPCR the cycle at which signal appears reflects the starting amount.)

The subject of the next series is phosphatase activity. Briefly: Phosphatase activity on root samples. The settings on record: 7-days-old plants, −Pi+PTN1 40 μM, FIG. 4. On the procedure:
Soluble proteins were extracted with 50 mM TRIS pH 7.4 and 1 mM DTE (1,4-Dithioerythritol, Sigma, 6892-68-8). The protein concentration was determined by the Bradford methods, using albumin from bovine serum (BSA, Sigma, 9048-46-8) as a standard. The phosphatase activity in solution was determined as previously described by Kolari and Sarjala, (1995), by measuring the release of nitrophenol from 0.6 mM p-nitrophenylphosphate in 50 mM sodium acetate pH 5. Reactions were incubated at 30° C. for […] and were stopped with 10% of Na2CO3, after which the absorbance at 405 nm was measured.

Series [1] has as its system PAP12, PAP17 and PAP22 genes. The experiment in a line: Expression of acid phosphatase (PAP) genes. The settings on record: −Pi. As for the experimental part:
as §1

The next series has as its system wild-type (WT) seedlings. The experiment in a line: Primary root growth of wild-type seedlings. As for the experimental part: (§2) In the Pi deficient medium, NaCl (0.5 mM) was used to replace the equivalent amount of sodium provided by NaH2PO4. For controls of the effects of the compounds, 1% of DMSO (Dimethyl sulfoxid, SIGMA, 472301), solvent for the tested compounds, was added. After 2 days at 4° C., the plates were placed in a vertical position and plants were grown in a culture chamber under a 16 h light/8 h dark regime (24/21° C., 150 μE m^−2s^−1). For 4 weeks culture, large plates (24×24 cm) were placed in a horizontal position. Root architecture and aerial part area were quantified using program ImageJ.

The subject of the next series is cycB1::GUS. The experiment in a line: Cell cycle marker cycB1::GUS in root tip. The settings on record: 40 μM, −Pi seedlings, FIG. 7 (B). As for the experimental part: The GUS activity was detected as previously described by Jefferson et al. (1987), using a GUS staining solution containing 50 mM sodium phosphate buffer pH 7.0; 0.01% Triton X-100, 1 mM K3Fe(CN)6, 1 mM K4Fe(CN)6, 1 mg/ml 5-bromo-4-chloro-3-indolyl B-D-glucuronide (X-Gluc). For cycB1::GUS staining, plants were incubated 6 hours at 37° C.

A further series relates to starch accumulation. Briefly: Starch staining with lugol. The settings on record: FIG. 10 (D). On the procedure:
Starch staining was performed according to Zakhleniuk et al. (2001). Aerial part of plants was placed 6 h in EtOH 90% before to be iodine stained for 30 min in lugol (lugol solution; Sigma, France) and washed several times in water.

A further series relates to lpr1 mutant. Briefly: Shoot growth of lpr1 mutant. The settings on record: −Pi, FIG. 11. On the procedure:
as §2

For series [2], the system named is PHT1;4, PHT1;8, MGD3, PLDz2, SQD2, SPX1. The experiment in a line: qPCR of Pi starvation regulated genes in lpr1 mutant. The settings on record: 14 days-old plants, FIG. 12. As for the experimental part: as §1

“Also recorded” adds a separate entry of the source.

Consider `O=c1c(Sc2ccc(Cl)cc2)c(Sc2ccc(Cl)cc2)c1=O` [PTN1], for which the “toxicity as cause of reduced reporter gene expression” value in the series with PHT1;4 expression was “not explained by toxicity”. The “reduction of the impact of Pi starvation on the level of induction of PHT1 transcripts” value in the series on PHT1 genes (PHT1;4) (40 μM, roots, 7-day-old plantlets, FIG. 3 (A)) is “at least 50%”. Further, in the series on PHT1 genes (PHT1;4) (FIG. 2 (B)), the “efficiency on PHT1;4 relative to PTN2” value is given as “twice more efficient than PTN2”. In the series with PHT1 genes (PHT1;4) (qPCR on root mRNA, FIG. 2 (B)), the “effect on PHT1;4 transcript level” value was “dose dependant manner”. Also, the phosphatase activity result in the series with phosphatase activity is “not altered; also recorded: did not impact the phosphatase activity”. The “expression level of PAP12, PAP17 and PAP22 genes” value in series [1] is reported as “reduced the expression level”. The “primary root growth at various external Pi concentrations (15-250 uM)” value in the series on wild-type (WT) seedlings (10 uM, 5 days on Pi rich medium then 24 hours on tested conditions, FIG. 7 (D)) is “improved root growth until 50/75 μM of Pi”. Also, the “primary root growth on −Pi” value in the series on wild-type (WT) seedlings (WT, 7-day-old plantlets, FIG. 7 (A)) is on record as “promote the primary root growth in a dose dependent manner”. Moreover, the concentration of maximum effect on primary root growth and PHT1;4 inhibition in the series on wild-type (WT) seedlings (−Pi) is 40 µM. The “CycB1 expression in root tip” value with cycB1::GUS is “expressed in the root tip of −Pi seedlings but there were fewer stained cells than in the +Pi control”. In addition, the starch accumulation result in the series on starch accumulation is listed as “severely attenuated”. In addition, in the series on lpr1 mutant, the “anthocyanins accumulation in leaves of lpr1” value was “substantially suppressed this accumulation”. Also, the “expression of PHT1;4, PHT1;8, MGD3, PLDz2, SQD2, SPX1 in lpr1” value in [2] is listed as “repressed the expression of these genes in lpr1 to a similar level as observed in the WT”.
